Results taken from US11142524B2, “Substituted-3H-imidazo[4,5-c]pyridine and 1H-pyrrolo[2,3-c]pyridine series of novel Ectonucleotide Pyrophosphatase/Phosphodiesterase-1 (ENPP1) and stimulator for interferon genes (STING) modulators as cancer immunotherapeutics” (Stingray Therapeutics, Inc., priority 2018, dated 2021).
pIC50: −log10 of the molar value. Like-named read-outs stand apart in the source and are kept apart here.

Assays:
ENPP1 protein [1] = target: T1, ENPP1 protein (Homo sapiens (Human), UniProt P22413); test: ENPP1 Inhibition Assay (thymidine 5′-monophosphate p-nitrophenol ester substrate); format: biochemical
Method: Assay Buffer: 1 mM CaCl2, 0.2 mM ZnCl2, 50 mM Tris, pH 9.0. Substrate: 8 mM Thymidine 5′-monophosphate p-nitrophenol ester sodium salt (Sigma Cat #T4510). Enzyme: 5 ng/L Recombinant Human ENPP-1 Protein (R&D Cat #6136-EN-010) in DMSO in 96-well clear assay plates
(§1) An eight point serial dilution of drugs was prepared in 10× in assay buffer with the final assay concentrations starting at 10 μM, 3 μM, 1 μM, 0.3 μM . . . 0 μM. A dilution of DMSO was included as a control. The assay plate was set up as follows with each well in duplicate: 81 μL assay buffer+10 μL ENPP1 inhibitor or DMSO+5 μL Substrate+4 μL Enzyme. Both the enzyme and substrate were added to opposite sides of the well to ensure that there was no interaction until all wells had both components. The plate was then centrifuged gently for 10 seconds, followed by an incubation at 37° C. for 45 minutes. The reaction was quantified by measuring absorbance at 405 nm using the Envision.
IC50 values are determined using GraphPad Prism 5 software. The data were entered as an X-Y plot into the software as percent inhibition for each concentration of the drug. The concentration values of the drug were log transformed and the nonlinear regression was carried out using the “sigmoidal dose-response (variable slope)” option within the GraphPad software to model the data and calculate IC50 values. The IC50 values reported are the concentration of drug at which 50% inhibition was reached.

B16F10 tumor = test: Anti-tumor efficacy in B16F10 (melanoma) syngeneic model; format: in vivo, C57BL/6 mice
Description: Animals: Female C57BL/6 (4-6 week's age from Taconic).
The B16F10 cells were propagated in DMEM cell culture medium containing 10% Fetal Bovine Serum. Cells were harvested in logarithmic growth phase and implanted subcutaneously ([…]) in the lower abdomen of mice. Tumor growth was monitored daily and after the tumors had reached 80 to 100 mm3, mice were randomized into groups consisting of 8 animals per group. Animals were euthanized when tumors reached around 2000 mm^3 or treatment regime completed or 20% of body weight loss, or developed ulceration and necrosis. Upon termination, tumor samples and blood were collected and analyzed for biomarkers.

[2] = target: Recombinant Human ENPP-1 Protein (purified in-house) (Homo sapiens (Human), UniProt P22413); test: ENPP1 Assay (TMP), Example 2; format: biochemical
Method: Enzyme: 1 ng/μL Recombinant Human ENPP-1 Protein (purified in-house)—Assay Conc.: 5 ng/well of DMSO in 96-well clear assay plates.
as §1, with “A ten” for “An eight”, “75” for “81”, “DMSO Dilutions+10” for “DMSO+5”, “Substrate+5” for “Substrate+4”, “Enzyme (5 ng).” for “Enzyme.”, “Envision Plate Reader.” for “Envision.”

ENPP1 protein [3] = target: T1, ENPP1 protein; test: ENPP1 Thermal Shift Assay (Example 1); format: binding; details: Table 2, FIG. 7, 100 μM drug, 1.0 μg ENPP1

T1 sequence (P22413 whole entry, looked up, change not shown): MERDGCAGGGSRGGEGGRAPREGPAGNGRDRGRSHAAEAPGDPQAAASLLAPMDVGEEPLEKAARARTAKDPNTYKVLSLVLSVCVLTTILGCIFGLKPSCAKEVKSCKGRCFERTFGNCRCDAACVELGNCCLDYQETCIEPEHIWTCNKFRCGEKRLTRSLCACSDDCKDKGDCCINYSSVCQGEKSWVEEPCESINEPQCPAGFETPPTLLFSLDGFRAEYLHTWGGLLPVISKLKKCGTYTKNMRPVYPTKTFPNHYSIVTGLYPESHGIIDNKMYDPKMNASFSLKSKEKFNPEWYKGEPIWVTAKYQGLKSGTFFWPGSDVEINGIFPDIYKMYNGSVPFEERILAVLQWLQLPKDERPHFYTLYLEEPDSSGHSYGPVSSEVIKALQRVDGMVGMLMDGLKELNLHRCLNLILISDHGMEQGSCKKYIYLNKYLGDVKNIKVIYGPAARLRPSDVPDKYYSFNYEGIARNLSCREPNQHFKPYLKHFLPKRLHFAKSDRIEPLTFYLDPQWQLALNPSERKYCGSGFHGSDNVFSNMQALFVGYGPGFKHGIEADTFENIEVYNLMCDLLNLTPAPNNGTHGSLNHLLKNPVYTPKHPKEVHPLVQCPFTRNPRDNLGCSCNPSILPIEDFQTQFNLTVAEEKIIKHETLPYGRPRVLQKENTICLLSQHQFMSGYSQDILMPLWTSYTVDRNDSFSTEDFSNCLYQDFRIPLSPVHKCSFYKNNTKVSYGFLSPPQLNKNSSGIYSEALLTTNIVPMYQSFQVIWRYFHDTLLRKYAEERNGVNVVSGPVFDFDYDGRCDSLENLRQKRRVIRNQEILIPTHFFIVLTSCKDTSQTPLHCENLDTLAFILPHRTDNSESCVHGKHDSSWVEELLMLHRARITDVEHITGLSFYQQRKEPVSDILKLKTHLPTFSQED
Sequence of Recombinant Human ENPP-1 Protein (purified in-house) (P22413 whole entry, looked up): as the sequence (P22413 whole entry, looked up, change not shown) above

SMILES: COc1ccc(NC(=O)CSc2nc3c(C)c(C#N)ncc3[nH]2)cc1O [Compound 78, 2-((6-Cyano-7-methyl-3H-imidazo[4,5-c]pyridin-2-yl)thio)-N-(3-hydroxy-4-methoxyphenyl) acetamide]
- inhibiting the activity of ENPP1 (ENPP1 protein [1]; FIG. 1): effective
- pIC50 (ENPP1 protein [1]; Table 1, FIG. 1, read-out: IC50): 7.10
- B16F10 tumor growth inhibition (B16F10 tumor; 30 mg/kg dose (FIG. 6A / FIG. 13A)): 28%
- B16F10 tumor growth inhibition (B16F10 tumor; FIG. 6B / FIG. 13B, dose and route not stated): 27%
- pIC50 ([2]; FIG. 5A, TMP substrate, read-out: IC50): 6.57
- IC50 ([2]; Table 5, TMP substrate, read-out: ENPP1 (IC50 μM) TMP): 0.271 µM
- Tm (° C.) (ENPP1 protein [3]; NT 60.05): 61.16 °C
- ΔTm at 100 µM (ENPP1 protein [3]; read-out: ΔTm (° C.)): 1.11 °C
